The source of these data is patent publication US9920300B2, “Induction of germ cells from pluripotent cells” (The Board of Trustees of the Leland Stanford Junior …, priority 2009, dated 2018).

The test system of data set [1] is VASA-GFP+ population of human ES cells (H9, HSF1). The data set can be described thus: VASA-GFP reporter FACS of differentiated human ES cells (Example 1). The conditions noted are these: XX line (H9), 14 days. The format is cell-based. On the procedure: 2.5 kb of human VASA upstream of the first codon was cloned into pENTR 5′-TOPO. EGFP was fused 1 kb downstream of the last codon of human VASA, and cloned into pENTR/D-TOPO. Cloned plasmids were recombined (Suter, D. M. et al. (2006) Stem Cells 24, 615-623) to create pLVGV. Lentiviral supernatant was produced, human ES cells were transduced overnight on matrigel in conditioned medium and subsequently selected with geneticin ([…]) for 7 days. Selected human ES cells were differentiated for the times indicated and harvested by brief treatment with collagenase IV and then TrypLEExpress (Invitrogen). The cell suspension was prepared in differentiation medium for FACS with a MoFlow or BD cell sorter.
Four human ES cell lines were used in this study: HSF1 (XY), HSF6 (XX), H1 (XY) and H9 (XX). Undifferentiated cultures of human ES cells were maintained on irradiated MEFs as previously described in Kee, K. et al (2006) Stem Cells Dev. 15: 831-837. Briefly, all cultures were grown at 37° C. with 5% CO2 in knockout serum replacer (KSR) plus bFGF medium (knockout DMEM, supplemented with 20% knockout serum replacer, 1 mM L-glutamine, 0.1 mM nonessential amino acids, 0.1 mM 2-mercaptoethanol, and 4 ng ml^−1 recombinant human bFGF (bFGF, R&D systems)). […]

Another data set relates to DAZL and VASA. Kind of data set: Western blot of DAZL and VASA in human ES cells after silencing/overexpression. The format is cell-based. The conditions noted are these: human ES cells differentiated 14 days with BMPs. As to the method:
(§1) To collect the adherently differentiated cells, cells were washed with 3 ml cold PBS without Ca^2+ and Mg^2+, then scraped from the plate in 1 ml PBS plus 2× protease inhibitors (Complete Mini, Roche) and transferred immediately to a 1.5-ml tube on ice. The PBS cell suspension was then spun at 5,000 r.p.m. in a microcentrifuge for 3 min and the supernatant was discarded. The cell pellet was resuspended with 200 ul RIPA buffer (50 mM Tris, 150 mM NaCl, 0.5% sodium deoxycholate, 1% NP-40, 0.1% SDS, pH 8) plus 2× protease inhibitors (Complete Mini, Roche). The cell pellet suspension was pipetted rigorously at least 10 times, then vortexed for 30 sec. The suspension was again spun down for 3 min at the same speed. The supernatant was measured for protein concentration and denatured at a 1:1 ratio with 2× Laemmli buffer at 95° C. for 5 min, then loaded onto either a 10% or 12% SDS-PAGE gel. The SDS-PAGE gels were run at 150 V for 1 h and transferred to a PVDF membrane for 1 h at 100 V in CAPS buffer (10 mM CAPS, 10% methanol, pH 11). Transferred blots were blocked in 5% non-fat milk for 1 h at room temperature. […]

Another data set deals with DAZL. Kind of data set: shRNA silencing of DAZL-V5 / DAZL:GFP cotransfected in 293T cells. The format is cell-based, human. On the procedure: as §1

“shDAZL4: shRNA 5′-GCAGAAGATAGTAGAATCACA-3′, SEQ ID NO: 27”: the “VASA-GFP+ population” value in data set [1] is given as “reduced”. The “Expression of DAZL and VASA” value in the data set on DAZL and VASA is “significantly reduced”. For the same substance, the “Silencing of DAZL:GFP fusion protein” value with DAZL was “most effective silencer for DAZL”.
